Measurements taken from publication PMC6930570, “2-Arylidene-1-indandiones as Pleiotropic Agents with Antioxidant and Inhibitory Enzymes Activities” (Molecules, 2019).

Experiments:
Assay type in all cases: biochemical
[1] = Reducing activity of the stable radical DPPH
Experimental: The novel derivatives were studied for their interaction with the sTable 2,2-diphenyl-1-picrylhydrazyl free radical (DPPH)at concentration 50 µM, 100 µM and 200 µM after 20 and 60 min (Table 2). In this assay the DPPH radical is reduced transferring one electron from the antioxidant. Phenolic compounds such as catechol and derivatives generate phenoxide anions with strong antioxidant capacity. Nordihydroguaretic acid (NDGA), the reference compound acts by this mechanism. Compound 10 presents the highest scavenging activity at 100 µM after 20 min correlated with the presence of the phenolic OH. Compounds 3, 4, 5, 7 presented medium activities depending from time and concentration. The presence of the heteroatom O or S seems to influence the activity e.g., derivatives 1, 2, and 3. Replacement of phenyl ring (4) by a thienyl group (1) decreases antioxidant behavior. […] On the contrary the presence of the furyl ring (3) enhances reduction. Additionally, the presence of a π-dimethyl-amino group 6 reduces the scavenging ability whereas its absence in (5), increases the activity. The presence of two conjugated double bonds (5) leads to lower activity compared to the simpler compound 4. Compounds 9 and 10 present the highest milogP values (5.94). Both include a phenolic hydrogen in their structure. […] On the contrary in compound 9 steric reasons are possible to lead to a decrease. Lipophilicity seems to influence the interaction of compound 10.
To a solution of DPPH in absolute ethanol an equal volume of the compounds with final concentrations of 50, 100 and 200 µM from a stock solution of 10 mM (in 1% DMSO and ethanol) was added. After 20 and 60 min the absorbance was recorded at 517 nm at room temperature (Table 2).

[2] = molecular target: T1, soybean lipoxygenase (Glycine max, UniProt P08170); test: Soybean lipoxygenase inhibition in vitro; conditions: sodium linoleate substrate, no = no action under the experimental conditions; for inhibition at 100 µM: read-out: LOX (% Inhibition 100 µM)
T1 construct: purchased Sigma Chemical, Co. (St. Louis)
T1 sequence (P08170 1-839): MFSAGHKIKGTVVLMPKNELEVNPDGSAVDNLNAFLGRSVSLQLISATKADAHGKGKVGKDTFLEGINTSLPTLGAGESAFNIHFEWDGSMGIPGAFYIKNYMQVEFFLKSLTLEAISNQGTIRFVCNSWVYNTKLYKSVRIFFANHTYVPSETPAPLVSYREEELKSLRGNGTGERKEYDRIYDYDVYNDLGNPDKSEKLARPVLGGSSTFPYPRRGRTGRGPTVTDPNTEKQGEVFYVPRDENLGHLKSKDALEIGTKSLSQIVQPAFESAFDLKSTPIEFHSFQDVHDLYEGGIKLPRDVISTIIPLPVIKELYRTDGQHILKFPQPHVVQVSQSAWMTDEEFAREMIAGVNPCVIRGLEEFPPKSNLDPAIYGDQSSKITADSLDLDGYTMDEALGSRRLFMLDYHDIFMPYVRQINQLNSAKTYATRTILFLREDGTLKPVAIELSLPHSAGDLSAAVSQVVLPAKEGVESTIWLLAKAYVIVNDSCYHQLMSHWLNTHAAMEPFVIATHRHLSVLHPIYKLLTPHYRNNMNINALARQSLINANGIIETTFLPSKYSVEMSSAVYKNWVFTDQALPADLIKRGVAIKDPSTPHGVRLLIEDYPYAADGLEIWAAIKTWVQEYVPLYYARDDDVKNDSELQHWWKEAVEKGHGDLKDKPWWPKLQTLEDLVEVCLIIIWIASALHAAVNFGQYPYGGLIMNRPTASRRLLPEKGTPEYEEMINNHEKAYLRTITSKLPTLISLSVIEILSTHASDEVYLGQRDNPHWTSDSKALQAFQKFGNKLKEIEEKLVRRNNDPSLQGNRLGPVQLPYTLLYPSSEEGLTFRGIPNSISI
Experimental: Thus, we used soybean LOX in our in vitro experiments.
In vitro study was performed as reported previously by our group. Sodium linoleate (0.1 mM) and 0.2 mL of enzyme solution (1/9 × 104 w/v in saline) were used for the incubation of the tested derivatives.

[3] = ABTS+. decolorization assay; conditions: 1 min, no = no action under the experimental conditions
Excerpt: The radical cation ABTS^+• is directly generated through potassium persulfate by oxidation with no participation of an intermediary radical and then the reduction is followed by adding electron-donating antioxidants. In this assay the radical is generated before adding the antioxidant (decolorization assay). […] It seems that lipophilicity influences the activity, since both are presenting high lipophilicity values. […] The radical cation ABTS^+• was generated from an ABTS stock solution in water (7 mM) which was mixed with potassium persulfate (2.45 mM) and left in the dark at room temperature for 12–16 h before use. The results are recorded after 1min of the mixing solutions at 734 nm and compared to the appropriate standard inhibitor Trolox (Table 3).

[4] = molecular target: T2, bovine thrombin (Bos taurus, UniProt P00735); test: In vitro inhibition of thrombin; conditions: substrate tosyl-Gly-Pro-Arg-pNA, no = no action under the experimental conditions; for inhibition at 100 µM: read-out: TH% 100 µM (thrombin inhibition)
T2 construct: purchased Sigma Chemical, Co. (St. Louis)
Experimental: It is well known that indandione derivatives exert their anticoagulant activity indirectly by inhibiting prothrombin synthesis in the liver. […] Derivatives 1, 2, 5, 8, 9, 10, and 12 were tested in vitro as possible thrombin inhibitors. Among the tested derivatives compound 8 presented 100% inhibition followed by compounds […] and 10.
As a substrate tosyl-Gly-Pro-Arg-pNA acetate salt was used at 1 mM final concentration. Compounds were dissolved at a final concentration of […] in a Tris-buffer (0.05 M Tris, 0.154 M NaCl, ethanol 5%, pH = 8.0). Three minutes after the addition of bovine thrombin (2.5 unit/mg), the reaction was ended by adding 1 mL acetic acid 50%. The absorption of the released p-nitro-aniline was measured at 405 nm (Table 3). Warfarin and Inogatran were used as reference compounds.

[5] = Superoxide anion radical scavenging activity (PMS/NADPH/NBT); conditions: 100 μM (stated for compound 3)
Experimental: The compounds have been tested to scavenge superoxide anion radicals. However, no results were recorded under the experimental conditions.
The superoxide anion producing system was set up by mixing PMS, NADPH, and air oxygen. The production of superoxide anion was estimated by the nitrobluetetrazole NBT method. The reaction mixture containing compounds, 3 μM PMS, 78 μM NADPH, and 25 μM NBT in […] phosphate buffer pH 7.4 was incubated for 2 min at room temperature and the absorption was measured at 560 nm against a blank containing PMS. The tested compounds were pre-incubated for 2 min before adding NADPH. Caffeic acid was used as an appropriate standard (76%).

Structure (SMILES) | RA% 50 µM 20 min [1] [%] | RA% 50 µM 60 min [1] [%] | RA% 100 µM 20 min [1] [%] | RA% 100 µM 60 min [1] [%] | RA% 200 µM 20 min [1] [%] | RA% 200 µM 60 min [1] [%] | inhibition at 100 µM [2] [%] | ABTS+. % 100 µM (decolorization activity) [3] | inhibition at 100 µM [4] [%] | superoxide anion scavenging activity [5] [%] | TH% 100 µM (thrombin inhibition) [4] | LOX (% Inhibition 100 µM) [2]
Cc1ccsc1C=C1C(=O)c2ccccc2C1=O [Compound 2, (Z)-2-((3-methylthiophen-2-yl)methylene)-1H-indene-1,3(2H)-dione] | 2 | 2 | 16 | 16 | 4 | 7 | 45 | 2% | – | – | – | –
Cc1ccc(C=C2C(=O)c3ccccc3C2=O)o1 [Compound 3, (Z)-2-((5-methylfuran-2-yl)methylene)-1H-indene-1,3(2H)-dione] | 20 | 23 | 37 | 40 | 61 | 75 | 35.7 | 20% | 39 | 20 | – | –
O=C1C(=Cc2ccccc2)C(=O)c2ccccc21 [Compound 4, 2-benzylidene-1H-indene-1,3(2H)-dione] | 5 | 10 | 26 | 32 | 23 | 32 | 35 | 19% | – | – | no | –
CN(C)c1ccc(/C=C\C=C2C(=O)c3ccccc3C2=O)cc1 [Compound 6, (Z)-2-(3-(4-(dimethylamino)phenyl)allylidene)-1H-indene-1,3(2H)-dione] | 6 | 6 | 22 | 23 | 15 | 18 | 17.7 | 22% | 19 | – | – | –
O=C1C(=Cc2cccc(Oc3ccccc3)c2)C(=O)c2ccccc21 [Compound 7, (Z)-2-(3-phenoxybenzylidene)-1H-indene-1,3(2H)-dione] | 27 | 35 | 40 | 50 | 75 | 85 | 67.3 | 37% | – | – | no | –
O=C1C(=Cc2ccc(OCc3ccc(Br)cc3)cc2)C(=O)c2ccccc21 [Compound 8, (Z)-2-(4-((4-bromobenzyl)oxy)benzylidene)-1H-indene-1,3(2H)-dione] | 4 | 5 | 7 | 7 | 0 | 0 | 3.6 | 16% | 100 | – | – | –
CC(C)(C)c1cc(C=C2C(=O)c3ccccc3C2=O)c(O)c(C(C)(C)C)c1 [Compound 9, (Z)-2-(3,5-di-tert-butyl-2-hydroxybenzylidene)-1H-indene-1,3(2H)-dione] | 4 | 3 | 3 | 1 | 6 | 6 | – | no | 0 | – | – | no
CC(C)(C)c1cc(C=C2C(=O)c3ccccc3C2=O)cc(C(C)(C)C)c1O [Compound 10, (Z)-2-(3,5-di-tert-butyl-4-hydroxybenzylidene)-1H-indene-1,3(2H)-dione] | 13 | 17 | 100 | 85 | 71 | 71 | – | 39% | 27 | – | – | no
O=C1C(=Cc2c[nH]c3ccccc23)C(=O)c2ccccc21 [Compound 12, (Z)-2-((1H-indol-3-yl)methylene)-1H-indene-1,3(2H)-dione] | 3 | 3 | 17 | 17 | 4 | 6 | 58.9 | no | – | – | – | –
